# Numbered stars: 1 amine (or outer) side, 2 acyl side, 3 side chain; on linkers, the order of the positions; unused ones are H or OH. Bridge positions count the residues as written; N and C are the ends. Square brackets hold non-standard residues; d marks the D form. Peptide text beside a SMILES is read from it. I, II: the chains in the order shown. Actinocin(9to1) = Cc1c2oc3c(C)ccc(C(=O)[*:1])c3nc-2c(C(=O)[*:2])c(N)c1=O; NMeV = CN[C@H](C(=O)O)C(C)C; Sar = CNCC(=O)O
# Key:
# Assay type in all cases: physicochemical
# [1] = Partition coefficient (logP); settings: octanol/water
# [2] = log P value was reported at a pH 2.0; settings: buffer
# [3] = Partition coefficient (logD) (0.1 N NaOH)
logP ([1]; read-out: logP),Compound,further results
-1.8,NC(=O)NO [HYDROXYUREA],
0.66,COc1cccc2c1C(=O)c1c(O)c3c(c(O)c1C2=O)C[C@@](O)(C(C)=O)C[C@@H]3O[C@H]1C[C@H](N)[C@H](O)[C@H](C)O1 [DAUNORUBICIN],
0.1,COc1cccc2c1C(=O)c1c(O)c3c(c(O)c1C2=O)C[C@@](O)(C(=O)CO)C[C@@H]3O[C@H]1C[C@H](N)[C@H](O)[C@H](C)O1 [DOXORUBICIN],
0.03,COc1ccc(C[C@H](N)C(=O)N[C@H]2[C@@H](O)[C@H](n3cnc4c(N(C)C)ncnc43)O[C@@H]2CO)cc1 [PUROMYCIN],

# More lines, now with the values behind:
Compound,logP ([1]; read-out: logP),further results
"Cc1c2oc3c(C)ccc(C(=O)N[C@@H]4C(=O)N[C@H](C(C)C)C(=O)N5CCC[C@H]5C(=O)N(C)CC(=O)N(C)[C@@H](C(C)C)C(=O)O[C@@H]4C)c3nc-2c(C(=O)N[C@@H]2C(=O)N[C@H](C(C)C)C(=O)N3CCC[C@H]3C(=O)N(C)CC(=O)N(C)[C@@H](C(C)C)C(=O)O[C@@H]2C)c(N)c1=O [DACTINOMYCIN] (I: T[dV]P[Sar][NMeV] / II: T[dV]P[Sar][NMeV]; ester I:1-I:C, II:1-II:C; linker I:N-II:N via Actinocin(9to1))",3.21,
CN(Cc1cnc2nc(N)nc(N)c2n1)c1ccc(C(=O)N[C@@H](CCC(=O)O)C(=O)O)cc1 [METHOTREXATE],,logD [2]: -2.59
COc1ccc(OC)c(Cc2cnc3nc(N)nc(N)c3c2C)c1 [PIRITREXIM],,"logD ([3]; 0.1 N NaOH, read-out: logD): 2.13"
COCCOc1c(OC)cc(Cc2cnc(N)nc2N)cc1OC [TETROXOPRIM],,logD ([3]; octanol/water): 0.6
CISPLATIN,,logP [1]: -1.45
CO[C@@]12[C@H](COC(N)=O)C3=C(C(=O)C(C)=C(N)C3=O)N1C[C@@H]1N[C@@H]12 [MITOMYCIN],,logP [1]: -0.47

# Source: ChEMBL document CHEMBL1122587 (J Med Chem, 1984)
